The source of these data is ChEMBL document CHEMBL6109055, “Naphtho[1,2-b][1,4]diazepinedione-Based P2X4 Receptor Antagonists from Structure-Activity Relationship Studies toward PET Tracer Development” (J Med Chem, 2025).

A value given as a limit tells only on which side of the number the result lay.

The nature of series [1]: Octanol/PBS partition coefficient, log D of the radiolabeled compound at 420 to 460 kBq at pH 7.4 by gamma-counting analysis. To be noted: dose 420-460 kBq. In kind it is physicochemical.
The nature of series [2]: Stability in human serum measured up to 90 mins at 3.1 to 8.7 MBq by analytical radio-HPLC analysis. Format: ADME, cell-free. To be noted: dose 3.1-8.7 MBq, read-out: Stability.
Series [3] in a line: Stability in mouse serum measured up to 90 mins at 3.1 to 8.7 MBq by analytical radio-HPLC analysis. Format: ADME, cell-free. As to conditions: dose 3.1-8.7 MBq, read-out: Stability; call rule not given here.
Series [4] can be described thus: In vivo biodistribution in adult female C57Bl/6 mouse assessed as accumulation in bladder at 5 MBq, iv measured after 15 to 85 mins by PET imaging analysis. Format: ADME, organism-based, Urinary bladder. As to conditions: time 15-85 min.
Series [5] is described as follows: In vivo biodistribution in adult female C57Bl/6 mouse assessed as accumulation in intestine at about 5 MBq, iv measured after 2 to 85 mins by PET imaging analysis. As to conditions: time 2-85 min. Format: ADME, organism-based.
The nature of series [6]: In vivo biodistribution in adult female C57Bl/6 mouse assessed as accumulation in liver at about 5 MBq, iv measured after 15 mins by PET imaging analysis. In kind it is ADME, organism-based. As to conditions: 0.25 h.
Series [7] is described as follows: In vivo biodistribution in adult female C57Bl/6 mouse assessed as accumulation in gall bladder at about 5 MBq, iv measured after 30 mins by PET imaging analysis. As to conditions: 0.5 h. Format: ADME, organism-based.
A short description of series [8]: In vivo biodistribution in adult female C57Bl/6 mouse assessed as accumulation in bladder at 5 MBq, iv measured after 2 to 85 mins by PET imaging analysis. As to conditions: time 2-85 min. Format: ADME, organism-based, Urinary bladder.

The compound `Cc1cc([18F])ccc1CS(=O)(=O)Nc1ccc(N2C(=O)CC(=O)Nc3c2ccc2ccccc32)cc1` showed a log distribution coefficient (logD) in series [1] of 3.43. Besides, the remaining at […] in series [2] and in series [3] was over 99% each time. In addition, the Drug uptake result in series [4] and in series [5] was “Active” each time.

`Cc1cc([18F])ccc1S(=O)(=O)Nc1ccc(N2C(=O)CC(=O)Nc3c2ccc2ccccc32)cc1` displayed a pH-dependent lipophilicity (logD) in series [1] of 3.5. Besides, the remaining at […] in series [2] and in series [3] was over 99% in each case. For the same compound, the Drug uptake entry is reported as “Active” in series [6], “Active” in series [7] and “Not_active” in series [8].
